Test results: patent US5041445A, “3-[1-thiazolidinylbutyl-4-piperazinyl]-1H-indazoles” (Hoechst-Roussel Pharmaceuticals Incorporated, priority 1990, dated 1991)
Where two headings read alike, the source gives them in different places.

System: apomorphine climbing
Experiment: Climbing Mouse Assay (CMA), antagonism of apomorphine-induced climbing
Type: in vivo, CK-1 male mice
Settings: linear regression, read-out: Climbing Mice Assay ED50
Description: The compounds of the present invention are potentially useful as antipsychotic agents as determined in the Climbing Mouse Assay (CMA).
The Climbing Mouse Assay is described by P. Protais, et al., Psychopharmacol., 50, 1 (1976) and B. Costall, Eur. J. Pharmacol., 50, 39 (1978).
The subject CK-1 male mice (23-27 grams) are group-housed under standard laboratory conditions. The mice are individually placed in wire mesh stick cages (4"×4" by 10") and are allowed one hour for adaptation and exploration of the new environment. The apomorphine is injected subcutaneously at 1.5 mg/kg, a dose causing climbing in all subjects for 30 minutes. Compounds to be tested for antipsychotic activity are injected intraperitoneally (i.p.) 30 minutes prior to the apomorphine challenge at a screening dose of 10 mg/kg.
For evaluation of climbing, 3 readings are taken at 10, 20 and 30 minutes after apomorphine administration according to the following scale: […]
______________________________________
4 paws on bottom (no climbing)
2 paws on the wall (rearing)
4 paws on the wall (full climb)
Mice consistently climbing before the injection of apomorphine are discarded.
With full-developed apomorphine climbing, the animals are hanging onto the cage walls, rather motionless, over longer periods of time. By contrast, climbs due to mere motion stimulation usually last only a few seconds.
The climbing scores are individually totaled (maximum score: 6 per mouse over 3 readings) and the total score of the control group (vehicle intraperitoneally; apomorphine subcutaneously) is set to 100%. ED50 values with 95% confidence limits, calculated by linear regression analyses of some of the compounds of this invention are presented in Table 1.

[1] = ip, 30 minutes prior to apomorphine 1.5 mg/kg s.c.

Compound	ED50 [1] [mg/kg]	ED50 (po, apomorphine 1.5 mg/kg s.c.) [mg/kg]
CC1(C)SCN(CCCCN2CCN(c3n[nH]c4ccccc34)CC2)C1=O [3-(4-(1-[1H-Indazol-3-yl]-4-piperazinyl)-butyl)-5,5-dimethyl-4-thiazolidinone]	1.3	–
O=C1N(CCCCN2CCN(c3n[nH]c4ccccc34)CC2)CSC12CCCC2 [3-(4-(1-[1H-Indazol-3-yl]-4-piperazinyl)butyl)-1-thia-3-azaspiro[4.4]nonan-4-one]	1.3	2.7
O=C1N(CCCCN2CCN(c3n[nH]c4ccccc34)CC2)CSC12CCCCC2 [3-(4-(1-[1H-indazol-3-yl]-4-piperazinyl)butyl)-1-thia-3-azaspiro[4.5]decan-4-one]	0.65	–
O=C1N(CCCCN2CCN(c3n[nH]c4cc(F)ccc34)CC2)CSC12CCCCC2 [3-{4-[1-(6-Fluoro-1H-indazol-3-yl)-4-piperazinyl]butyl}-1-thia-3-azaspiro[4.5]decan-4-one]	0.04	0.67
CC1SCN(CCCCN2CCN(c3n[nH]c4cc(F)ccc34)CC2)C1=O (centres unmarked) [3-{4-[1-(6-Fluoro-1H-indazol-3-yl)-piperazinyl]butyl}-5-methyl-4-thiazolidinone]	0.11	–
CN1CCN(C2=Nc3cc(Cl)ccc3Nc3ccccc32)CC1 [Clozapine, reference compound]	8.1	–
